For 27 compounds, melting point and MIC50 results are on record in patent US6395732B1, “Pyrimidin-aminomethyl-pyridine derivatives, their preparation and their use in the control of helicobacter bacteria” (BYK Gulden Lomberg Chemische Fabrik GmbH, priority 1998, dated 2002).

Data set [1] has as its system Helicobacter pylori. The experiment in a line: Activity against Helicobacter pylori, agar method of Iwahi et al. (MIC 50). Format: cell-based. The settings on record: Helicobacter pylori, 96 h; Columbia agar (Oxoid), growth period of 4 days; approximate values; read-out: Appr. MIC 50. From the text:
The compounds of the formula I were investigated with respect to their activity against Helicobacter pylori following the method described by Tomoyuki Iwahi et al. (Antimicrobial Agents and Chemotherapy, 1991, 490-496) using Columbia agar (Oxoid) and a growth period of 4 days.

The term melting point denotes the temperature of the solid-liquid transition.

Consider `Cc1nc(C)c(Cl)c(NCc2nccc(OCCSCCn3c([N+](=O)[O-])cnc3C)c2C)n1` [Compound 32, (5-Chloro-2,6-dimethyl-pyrimidin-4-yl)-(3-methyl-4-{2-[2-(2-methyl-5-nitro-imidazol-1-yl)-ethylsulfanyl]-ethoxy}-pyridin-2-ylmethyl)-amine], for which the melting point fell in the range of 139 to 144 °C. Further, the MIC50 in data set [1] was at most 0.1 µg/mL.
In turn, `Cc1nc(C)c(Cl)c(NCc2nccc(OCCCSCCn3c([N+](=O)[O-])cnc3C)c2C)n1` [Compound 33, (5-Chloro-2,6-dimethyl-pyrimidin-4-yl)-(3-methyl-4-{3-[2-(2-methyl-5-nitro-imidazol-1-yl)-ethylsulfanyl]-propoxy}-pyridin-2-ylmethyl)-amine] displayed a melting point of 169 to 171 °C. In addition, the MIC50 in data set [1] was at most 0.1 µg/mL.
`Cc1nc(C)c(Cl)c(NCc2nccc(OCCCSCc3ccncc3)c2C)n1` [Compound 34, (5-Chloro-2,6-dimethyl-pyrimidin-4-yl)-{3-methyl-4-[3-(pyridin-4-ylmethylsulfanyl)-propoxy]-pyridin-2-ylmethyl}-amine] had a melting point of 111 to 113 °C. Also, the MIC50 in data set [1] was at most 0.1 µg/mL.
`Cc1nc(C)c(Cl)c(NCc2nccc(OCCOCCSCCO)c2C)n1` [Compound 35, 2-[2-(2-{2-[(5-Chloro-2,6-dimethyl-pyrimidin-4-ylamino)-methyl]-3-methyl-pyridin-4-yloxy}-ethoxy)-ethylsulfanyl]-ethanol]: the melting point lay within 114 to 116 °C. For the same compound, in data set [1], the MIC50 was at most 0.1 µg/mL.
The compound `Cc1nc(C)c(Cl)c(NCc2nccc(OCCCCSCCO)c2C)n1` [Compound 36, 2-(4-{2-[(5-Chloro-2,6-dimethyl-pyrimidin-4-ylamino)-methyl]-3-methyl-pyridin-4-yloxy}-butylsulfanyl)-ethanol] displayed a melting point of 116 to 118 °C. For the same compound, the MIC50 in data set [1] was at most 0.1 µg/mL.
For `Cc1nc(C)c(Cl)c(NCc2nccc(SCCCCSCCO)c2C)n1` [Compound 37, 2-(4-{2-[(5-Chloro-2,6-dimethyl-pyrimidin-4-ylamino)-methyl]-3-methyl-pyridin-4-ylsulfanyl}-butylsulfanyl)-ethanol], in that order: 142 to 143 °C and at most 0.1 µg/mL.
Compound `Cc1nc(C)c(Cl)c(NCc2nccc(SCCCN3CCN(CC4CN(Cc5ccncc5)C(=O)O4)CC3)c2C)n1` (stereo not drawn) [Compound 38, 5-[4-(3-{2-[(5-Chloro-2,6-dimethyl-pyrimidin-4-ylamino)-methyl]-3-methyl-pyridin-4-ylsulfanyl}-propyl)-piperazin-1-ylmethyl]-3-pyridin-4-ylmethyl-oxazolidin-2-one] had a melting point of 123 to 126 °C. Besides, the MIC50 in data set [1] was at most 0.1 µg/mL.
As to `Cc1nc(C)c(Cl)c(NCc2nccc(SCCCSc3sccc3[N+](=O)[O-])c2C)n1` [Compound 40, (5-Chloro-2,6-dimethyl-pyrimidin-4-yl)-{3-methyl-4-[3-(3-nitro-thiophen-2-ylsulfanyl)-propylsulfanyl]-pyridin-2-ylmethyl}-amine], the melting point lay within 174 to 180 °C. The MIC50 in data set [1] is at most 0.1 µg/mL.
`Cc1nc(C)c(Cl)c(NCc2nccc(SCCCSCCSc3ncccn3)c2C)n1` [Compound 41, (5-Chloro-2,6-dimethyl-pyrimidin-4-yl)-(3-methyl-4-{3-[2-(pyrimidin-2-ylsulfanyl)-ethylsulfanyl]-propylsulfanyl}-pyridin-2-ylmethyl)-amine] came in with a melting point of 112 to 115 °C. For the same compound, the MIC50 in data set [1] was at most 0.1 µg/mL.
Taken in the same sequence, the figures for `Cc1nc(C)c(Cl)c(NCc2nccc(SCCOCCSCc3ccncc3)c2C)n1` [Compound 42, (5-Chloro-2,6-dimethyl-pyrimidin-4-yl)-(3-methyl-4-{2-[2-(pyridin-4-ylmethylsulfanyl)-ethoxy]-ethylsulfanyl}-pyridin-2-ylmethyl)-amine] were 68 to 71 °C and at most 0.1 µg/mL.
The compound `Cc1nc(C)c(Cl)c(NCc2nccc(SCCOCCOCCSCc3ccncc3)c2C)n1` [Compound 43, (5-Chloro-2,6-dimethyl-pyrimidin-4-yl)-[3-methyl-4-(2-{2-[2-(pyridin-4-ylmethylsulfanyl)-ethoxy]-ethoxy}-ethylsulfanyl)-pyridin-2-ylmethyl]-amine] registered a melting point of 84 to 86 °C. In addition, the MIC50 in data set [1] was at most 0.1 µg/mL.
`Cc1nc(C)c(Cl)c(NCc2nccc(SCC3CCCN(C)C3)c2C)n1` (stereo not drawn) [Compound 44, (5-Chloro-2,6-dimethyl-pyrimidin-4-yl)-[3-methyl-4-(1-methyl-piperidin-3-ylmethylsulfanyl)-pyridin-2-ylmethyl]-amine] gave a melting point of 148 to 149 °C. Further, the MIC50 in data set [1] was at most 0.1 µg/mL.
In the case of `Cc1c(SCCCN2CCN(Cc3ccncc3)CC2)ccnc1CNc1ncncc1Cl` [Compound 45, (5-Chloro-pyrimidin-4-yl)-{3-methyl-4-[3-(4-pyridin-4-ylmethyl-piperazin-1-yl)-propylsulfanyl]-pyridin-2-ylmethyl}-amine], the melting point was 149 to 151 °C. In addition, in data set [1], the MIC50 was at most 0.1 µg/mL.
In turn, `Cc1nc(C)c(Cl)c(NCc2nccc(SCc3ccncc3)c2C)n1` [Compound 46, (5-Chloro-2,6-dimethyl-pyrimidin-4-yl)-[3-methyl-4-(pyridin-4-ylmethylsulfanyl)-pyridin-2-ylmethyl]-amine] yielded a melting point of 188 to 191.9 °C. The MIC50 in data set [1] is at most 0.1 µg/mL.
As to `Cc1nc(C)c(Cl)c(NCc2nccc(SCCCSCc3cccnc3)c2C)n1` [Compound 47, (5-Chloro-2,6-dimethyl-pyrimidin-4-yl)-{3-methyl-4-[3-(pyridin-3-ylmethylsulfanyl)-propylsulfanyl]-pyridin-2-ylmethyl}-amine], the melting point was in the range of 104 to 105 °C. In data set [1], the MIC50 was at most 0.1 µg/mL.
With `Cc1nc(C)c(Cl)c(NCc2nccc(SCCCSCc3ccccn3)c2C)n1` [Compound 48, (5-Chloro-2,6-dimethyl-pyrimidin-4-yl)-{3-methyl-4-[3-(pyridin-2-ylmethylsulfanyl)-propylsulfanyl]-pyridin-2-ylmethyl}-amine], the melting point fell in the range of 100 to 101 °C. In data set [1], the MIC50 was at most 0.1 µg/mL.
Turning to `Cc1c(OCCSCCn2c([N+](=O)[O-])cnc2C)ccnc1CNc1ncncc1Cl` [Compound 49, (5-Chloro-pyrimidin-4-yl)-(3-methyl-4-{2-[2-(2-methyl-5-nitro-imidazol-1-yl)-ethylsulfanyl]-ethoxy}-pyridin-2-ylmethyl)-amine], the melting point fell in the range of 145 to 147 °C. The MIC50 in data set [1] was at most 0.1 µg/mL.
On to `Cc1nc(C)c(Cl)c(NCc2nccc(OCCCCSCc3ccccn3)c2C)n1` [Compound 51, (5-Chloro-2,6-dimethyl-pyrimidin-4-yl)-{3-methyl-4-[4-(pyridin-2-ylmethylsulfanyl)-butoxy]-pyridin-2-ylmethyl}-amine], for which the melting point lay within 113 to 114 °C. Also, the MIC50 in data set [1] is at most 0.1 µg/mL.
`Cc1nc(C)c(Cl)c(NCc2nccc(SCCOCCSCc3cccnc3)c2C)n1` [Compound 52, (5-Chloro-2,6-dimethyl-pyrimidin-4-yl)-(3-methyl-4-{2-[2-(pyridin-3-ylmethylsulfanyl)-ethoxy]-ethylsulfanyl}-pyridin-2-ylmethyl)-amine] came in with a melting point of 90 to 92 °C. In addition, the MIC50 in data set [1] is at most 0.1 µg/mL.
Turning to `Cc1nc(C)c(Cl)c(NCc2nccc(SCCOCCSCc3ccccn3)c2C)n1` [Compound 53, (5-Chloro-2,6-dimethyl-pyrimidin-4-yl)-(3-methyl-4-{2-[2-(pyridin-2-ylmethylsulfanyl)-ethoxy]ethylsulfanyl}-pyridin-2-ylmethyl)-amine], the melting point lay within 70 to 72 °C. Further, in data set [1], the MIC50 was at most 0.1 µg/mL.
Turning to `Cc1c(OCCSCc2ccncc2)ccnc1CNc1ncncc1Cl` [Compound 54, (5-Chloro-pyrimidin-4-yl)-{3-methyl-4-[2-(pyridin-4-ylmethylsulfanyl)-ethoxy)-pyridine-2-ylmethyl}-amine], the melting point is 119 to 121 °C. Further, the MIC50 in data set [1] is at most 0.1 µg/mL.
Take `CN(CCO)c1ccnc(CNc2ncncc2Cl)c1Cl` [Compound 55, 2-({3-Chloro-2-[(5-chloro-pyrimidin-4-ylamino)-methyl]-pyridin-4-yl}-methyl-amino)-ethanol]: the melting point was 158 to 161 °C. In addition, the MIC50 in data set [1] is at most 0.1 µg/mL.
Compound `Cc1c(OCCCSCCn2c([N+](=O)[O-])cnc2C)ccnc1CNc1ncncc1Cl` [Compound 56, (5-Chloro-pyrimidin-4-yl)-(3-methyl-4-{3-[2-(2-methyl-5-nitro-imidazol-1-yl)-ethylsulfanyl]-propoxy}-pyridin-2-ylmethyl)-amine] registered a melting point of 143 to 146 °C. Also, in data set [1], the MIC50 is at most 0.1 µg/mL.
Regarding `Cc1nc(C)c(Cl)c(NCc2nccc(SCCOCCn3c([N+](=O)[O-])cnc3C)c2C)n1` [Compound 57, (5-Chloro-2,6-dimethyl-pyrimidin-4-yl)-(3-methyl-4-{2-[2-(2-methyl-5-nitro-imidazol-1-yl)-ethoxy]-ethylsulfanyl}-pyridin-2-ylmethyl)-amine], the melting point lay within 160 to 163 °C. For the same compound, the MIC50 in data set [1] is at most 0.1 µg/mL.
With `Cc1c(OCCSCc2ccco2)ccnc1CNc1ncncc1Cl` [Compound 58, (5-Chloro-pyrimidin-4-yl)-{4-[2-(furan-2-ylmethylsulfanyl)-ethoxy]-3-methyl-pyridin-2-ylmethyl}-amine], the melting point fell in the range of 129 to 130 °C. Besides, in data set [1], the MIC50 is at most 0.1 µg/mL.
Consider `Cc1c(SCc2ccco2)ccnc1CNc1ncncc1Cl` [Compound 59, (5-Chloro-pyrimidin-4-yl)-[4-(furan-2-ylmethylsulfanyl)-3-methyl-pyridin-2-ylmethyl]-amine], for which the melting point lay in the range of 169 to 170 °C. The MIC50 in data set [1] is at most 0.1 µg/mL.
Compound `Cc1nc(C)c(Cl)c(NCc2nccc(SCc3ccco3)c2C)n1` [Compound 60, (5-Chloro-2,6-dimethyl-pyrimidin-4-yl)-[4-(furan-2-ylmethylsulfanyl)-3-methyl-pyridin-2-ylmethyl]-amine] returned a melting point of 159 to 160 °C. Besides, the MIC50 in data set [1] was at most 0.1 µg/mL.
